Test results: US10442767B2 (priority 2012, dated 2019)
Read-outs that look alike come from different tables or passages of the source.

Assays:
Shaker K^+ channel = target: T1, Shaker K^+ channel (Drosophila melanogaster, UniProt P08510); assay: Inhibition of K+ currents, cut-open oocyte voltage clamp; type: cell-based, Xenopus oocytes; settings: for fold less potent than 4-AP: cut-open oocyte voltage clamp (Example 2); for IC50: relative K+ current at +20 mV, Xenopus oocytes, Hill fit, read-out: half-maximal inhibitory concentration (IC50)
T1 construct: injecting approximately 50 ng of WT Shaker cRNA (kit Ambion) into the oocytes; expressed in transfected cells; host or cells: Xenopus laevis oocytes (cRNA injection)
Experimental: Using the cut-open oocyte voltage clamp studies to screen compounds to determine their potency towards Kv1 cannels was previously described in Starace and Bezanilla et al. (2004).
For this experiment, Shaker K^+ channel from D. […] was chosen as the archetypical voltage gated K^+ channel that gives name to the family.
Electrophysiology studies are conducted according to the protocol by Stefani and Bezanilla (1998). Briefly, K^+ channel Shaker cRNA is injected into Xenopus oocytes 24 h after their surgical extraction from adult frogs. 1-5 days after injection channel currents are recorded using the cut-open voltage-clamp.
K^+ channel expression in Xenopus oocytes membranes was achieved by injecting approximately 50 ng of WT Shaker cRNA (kit Ambion) into the oocytes 24 h after surgical extraction from adult frogs and collagenase treatment. Injected oocytes were maintained in a standard oocytes solution (100 mM NaCl, 5 mM KCl, 2 mM CaCl2, and 10 mM Hepes at pH 7.5) at 16.5° C. and recordings were performed 1-3 days after injection.
K^+ currents were recorded from oocytes expressing Shaker K^+ channels using the cut-open voltage clamp technique as described by Stefani and Bezanilla. The internal solution was 120 mM KOH, 20 mM HEPES-methyl sulfonate (MES) pH 7.4, 2 mM EGTA. The external solution was 12 mM KOH, 105 mM N-methyl-D-glucamine-MES pH 7.4, 20 mM HEPES, 2 mM CaOH. […] After application, cells were voltage-clamped at least 5 min at 0 mV, then voltage-clamped at −80 mV for 1-2 min. K^+ currents were generated by applying series of 50 ms pulses from −70 mV to +40 mV in increments of 10 mV. […] Analysis of the traces was done using an in-house software. The half-maximal inhibitory concentration (IC50) for each drug was calculated by plotting the relative K^+ current vs. concentration and fitted to the Hill equation using the software Origin.
(§1) EC50=10^<log EC50>; where <log EC50>=average of log EC50 values from all experiments with the same drug. 95% C.I.=[Upper Limit . . . Lower Limit]; where U.L.=10^(log EC50+s.d.) and L.L.=10^(log EC50−s.d.). The half-life (t1/2) in the stability and pharmacokinetic experiments was calculated by fitting the data to the equation Ct=C0*exp(−k*t) where C0=initial concentration, Ct=concentration at time t, and k=ln 2/t1/2. Student t-test was used to compare results and P<0.05 was considered significant.

[1] = test system: hypomyelinated optic nerves from Shiverer mice (shi^−/−); assay: Compound action potential (CAP) of dissected hypomyelinated optic nerve; type: cell-based, mouse; settings: for EC50: Mus musculus, hypomyelinated Shiverer optic nerve, 22 °C, Hill fit, read-out: half-maximal effective concentration (EC50) in enhancing the CAP
Experimental: (§2) In order to determine if the drugs could also be effective in enhancing compound action potentials (CAP), the effects of these compounds on the CAP of hypomyelinated optic nerves from Shiverer mice (shi^−/−) and control mice (shi^+/−, shi^+/+) were tested. Shiverer mice lack compact myelin in the CNS due to a null mutation of the myelin basic protein gene (MBP).
optic nerves were dissected from 12-16 week old Shiverer (shi^−/−) and control mice (shi^+/− and shi^+/+). Mice were euthanized by CO2 overdose and the optic nerves were quickly dissected between the eyeball and the optic chiasm. The nerves were incubated for 30 min at 37° C. in oxygenated (95% O2, 5% CO2) aCSF solution (126 mM NaCl, 3 mM KCl, 2 mM MgSO4, 26 mM NaHCO3, 2 mMCaCl2, 10 mM dextrose, pH 7.5) before the experiment.
compound action potentials (CAP) from hypomyelinated nerves (Shiverer mice, shi^−/−) and myelinated nerves (litermate controls, shi^+/− and shi^+/+) were recorded using suction electrodes as described by Stys et al. Briefly, the dissected optic nerve was placed inside a chamber containing oxygenated (5% CO2, 95% O2) aCSF (300 μL) between two suction electrodes (stimulus and recording electrodes) forming a tight seal on each end. Two additional electrodes were placed in the bath for reference. A supramaximal pulse (250 mV, 20 μs) was applied at the stimulating end of the nerve. The resulting CAP was amplified from the recording electrode using a high impedance low-noise amplifier (EG&G Princeton Applied Research Corporation) and filtered and sampled at 10-100 kHz. […] After each measurement the chamber was washed for 5 min (flow 1 mL/min) with oxygenated aCSF. The study was conducted at 22.2±1.3° C. to allow for slower conduction and the temperature was monitored throughout the experiment. CAP recordings were acquired with a SBC6711 board (Innovative Integration) controlled by in-house written software. Analysis of the traces was done using an in-house software. The half-maximal effective concentration (EC50) for each drug was calculated by plotting the final over initial amplitude vs. concentration and fitted to the Hill equation using Origin.
as §1, with “The Hill equation used to fit the data from the voltage-clamp and the optic nerve experiments was as follows: y=y0+(yf−y0)*x^n/(k^n+x^n); where n refers to the Hill coefficient (typically 1±0.1) and k refers to EC50 or IC50. y0 and yf refers to the origin and final ordinate values and were fixed at 1±0.1 or 0±0.1 depending on the experiment. EC50=10^<log” for “EC50=10^<log”

C57Bl/6J mice = assay: In vivo effects (tremor, seizures) after intraperitoneal injection; parameters: species or system mouse; settings: for Effect: N = 5; for effects in mice: doses up to 20 times higher
Experimental: A consequence of excessive K^+ channel blockage is the advent of seizures. 4-AP is known to cause seizures in mice at high doses.
At high doses, 4-AP causes tremors, muscle spasms and seizures.
10-week-old female C57Bl/6J mice were given an intraperitoneal injection of the drug under investigation and monitored continuously for 4 h. After 4 h no signs of drug effects could be observed. At least 72 h passed between injections to the same mice.

[2] = test system: normally myelinated optic nerves from control mice (shi^+/−, shi^+/+); assay: Compound action potential (CAP) of dissected normally myelinated optic nerve; type: cell-based, mouse
Experimental: as §2
optic nerves were dissected from 12-16 week old Shiverer (shi^−/−) and control mice (shi^+/− and shi^+/+). Mice were euthanized by CO2 overdose and the optic nerves were quickly dissected between the eyeball and the optic chiasm. […]
compound action potentials (CAP) from hypomyelinated nerves (Shiverer mice, shi^−/−) and myelinated nerves (litermate controls, shi^+/− and shi^+/+) were recorded using suction electrodes as described by Stys et al. Briefly, the dissected optic nerve was placed inside a chamber containing oxygenated (5% CO2, 95% O2) aCSF (300 μL) between two suction electrodes (stimulus and recording electrodes) forming a tight seal on each end. […] The study was conducted at 22.2±1.3° C. to allow for slower conduction and the temperature was monitored throughout the experiment. […] The half-maximal effective concentration (EC50) for each drug was calculated by plotting the final over initial amplitude vs. concentration and fitted to the Hill equation using Origin.

[3] = Pharmacokinetic study after single intravenous dose; type: in vivo, mice (CD-1); settings: female, CD-1, mouse, mice, i.v. 0.75 mg/kg
Experimental: 39 mice (CD-1, 6-weeks old, female) were used in the study. […] The drugs were dissolved in PBS and administered via tail-vein injection to achieve a dose of 0.75 mg/kg of body weight. At specific times post injection (10 min, 30 min, 1 h, 2 h, 4 h and 24 h) blood and brain samples were collected. Blood samples were transferred into tubes containing 5% EDTA, stored on ice, and centrifuged (4° C., 1000 rpm, 15 min). Plasma (upper phase) was transferred to a new tube and stored at −80° C. for further analysis. Brain tissue samples were collected after intracardial perfusion of the mouse. Brain tissue samples were stored at −80° C. for further analysis. Drug quantification in plasma: Briefly, to a 1.5 mL Eppendorf tube containing 50 μl of plasma, 200 μl of ice-cold acetonitrile containing 1,000 ng/ml Progesterone (used as internal standard) was added in order to precipitate the proteins. The sample was vortexed, mixed and centrifuged at 4000×g for 10 min at 4° C. to remove precipitates. 140 μl supernatant was collected and transferred to a 500 μl 96-well polypropylene plate and covered using silicone plate mat. 40 μl of sample was injected in into LC-MS. Using the same sample preparation procedure 11 standard solutions ranging from 50 ng/mL to 100 μg/mL were prepared, analyzed by LC-MS and used as a calibration curve to correlate peak area of the samples to concentration. Drug quantification in brain: the mouse brain was weighted and 1 mL of water per 400 mg of tissue was added. The sample was homogenized using an electric tissue homogenizer. To a 1.5 mL Eppendorf tube containing 50 μl of homogenized sample, 200 μl of ice-cold acetonitrile containing 1000 ng/ml Demeclocycline (used as internal standard) was added in order to precipitate the proteins. The sample was vortexed, mixed and centrifuged at 4000×g for 10 min at 4° C. to remove precipitates. 140 μl supernatant was collected and transferred to a 500 μl 96-well polypropylene plate and covered using silicone plate mat. 40 μl of each sample was injected into LC-MS. Using the same sample preparation procedure 11 standard solutions ranging from 50 ng/mL to 100 μg/mL were prepared, analyzed by LC-MS and used as a calibration curve to correlate peak area of the samples to concentration.
as §1, with “The Hill equation used to fit the data from the voltage-clamp and the optic nerve experiments was as follows: y=y0+(yf−y0)*x^n/(k^n+x^n); where n refers to the Hill coefficient (typically 1±0.1) and k refers to EC50 or IC50. y0 and yf refers to the origin and final ordinate values and were fixed at 1±0.1 or 0±0.1 depending on the experiment. EC50=10^<log” for “EC50=10^<log”

K^+ channels = settings: cited from earlier work
[4] = Brain distribution of [^3H] 4-AP in LPC-injected mice by autoradiography; type: in vivo; settings: [^3H] 4-AP 0.4 μCi/g i.v., 20-60 min
Experimental: The inventors conducted an experiment to evaluate if 4-AP selectively localizes in demyelinated (injured) areas. […] The lesions were caused by prior injection of lysophosphatidylcholine (LPC), also called lysolecithin, into their brains, which causes focal demyelination at the site of injection. Two days after LPC injection, at the peak of demyelination, the animals were injected with [^3H] […] Twenty to sixty minutes after injection of [^3H] 4-AP the mice were euthanized and their brains were dissected and frozen. The frozen brains were then cut into 20 μm sections using a cryostat and the sections mounted in slides. The slides were then exposed to radiation sensitive X-ray film at −80° C. in the dark for forty days to capture the distribution of radioactivity coming from [^3H] 4-AP throughout the brain.
After autoradiographic exposure, the slides were stained for myelin basic protein (MBP) using immunohistochemistry and imaged using fluorescent microscopy to determine the areas of demyelination.

[5] = Parallel Artificial Membrane Permeability Assay (PAMPA); type: in vitro ADME; settings: porcine polar brain lipids, 0.5 mM, 16 h, n=3
Experimental: In this experiment, the inventors included highly permeable verapamil and lowly permeable theophylline as controls.
Permeability studies were performed as previously described by Sugano, et al., 2011. A 96-well microplate (acceptor compartment) was filled with PBS containing 5% DMSO. A hydrophobic filter plate (donor compartment) was placed atop the buffer-filled plate and the filter surface was impregnated with 5 μL solution of porcine polar brain lipids (Avanti Lipids) in dodecane (1% w/v). 150 μL of the test compounds dissolved in PBS containing 5% DMSO (compound concentration 0.5 mM) was added to the donor compartment and covered. The only barrier between the two compartments was the artificial BBB membrane containing the porcine polar brain lipids. The whole system was incubated for several hours.

T1 sequence (P08510 whole entry): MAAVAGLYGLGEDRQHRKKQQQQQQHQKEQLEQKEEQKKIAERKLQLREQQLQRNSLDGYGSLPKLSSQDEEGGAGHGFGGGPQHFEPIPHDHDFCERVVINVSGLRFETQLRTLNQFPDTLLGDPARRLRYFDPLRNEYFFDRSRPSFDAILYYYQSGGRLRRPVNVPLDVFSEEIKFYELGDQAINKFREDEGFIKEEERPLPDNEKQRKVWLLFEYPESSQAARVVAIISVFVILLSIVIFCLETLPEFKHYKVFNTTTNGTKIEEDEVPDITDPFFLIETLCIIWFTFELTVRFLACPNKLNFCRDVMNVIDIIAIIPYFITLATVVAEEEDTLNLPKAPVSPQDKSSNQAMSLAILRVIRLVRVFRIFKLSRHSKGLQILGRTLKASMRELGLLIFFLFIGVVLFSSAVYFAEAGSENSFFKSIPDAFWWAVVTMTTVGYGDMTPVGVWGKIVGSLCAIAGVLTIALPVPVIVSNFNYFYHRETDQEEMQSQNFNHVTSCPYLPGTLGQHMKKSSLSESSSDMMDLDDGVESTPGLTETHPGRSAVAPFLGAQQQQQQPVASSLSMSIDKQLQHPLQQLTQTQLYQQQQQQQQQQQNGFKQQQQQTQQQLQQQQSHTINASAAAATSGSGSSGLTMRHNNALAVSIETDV

Compound: Nc1ccncc1CF [3-MeF-4-AP, 3-fluoromethyl-4-aminopyridine]
- fold less potent than 4-AP (Shaker K^+ channel): around 10 fold
- IC50 (Shaker K^+ channel): 7.45 mM
- times less potent than 4-AP (Shaker K^+ channel; voltage-clamp and optic nerve experiments together): 6-20 times
- EC50 [1]: 286 µM
- Effect (C57Bl/6J mice; i.p., 30 μmol/kg): No effect
- Effect (C57Bl/6J mice; i.p., 60 μmol/kg): Very mild tremor. Normal after 30 min
- duration of effect (tremors, seizures or jerks) (C57Bl/6J mice; i.p., 90 μmol/kg): ~45 min
- Effect (C57Bl/6J mice; i.p., 90 μmol/kg): Tremor and occasional jerks that last ca.
- duration of tremor and seizures (C57Bl/6J mice; i.p., 120 μmol/kg): min post-injection and last ca. 45 min.
- mice died of seizure (C57Bl/6J mice; i.p., 120 μmol/kg): 1 of 5 mice died of seizure
- start of tremor and seizures post-injection (C57Bl/6J mice; i.p., 120 μmol/kg): 5 min
- Effect (C57Bl/6J mice; i.p., 120 μmol/kg): Severe tremor and seizures
- in vivo potency compared with 4-AP (C57Bl/6J mice; i.p., mice): slightly less potent than 4-AP

Compound: Nc1ccncc1 [4-AP, 4-aminopyridine, reference compound]
- EC50 [1]: 59.2 µM
- increase in CAP amplitude ([1]; hypomyelinated nerves): 2-4 fold
- Effect (C57Bl/6J mice; i.p., 30 μmol/kg): Mild tremor, mouse quiet
- Effect (C57Bl/6J mice; i.p., 60 μmol/kg): Severe tremor, mild jerks, salivation
- duration of tremors and seizures (C57Bl/6J mice; i.p., 90 μmol/kg): ~2 h
- start of tremors and seizures post-injection (C57Bl/6J mice; i.p., 90 μmol/kg (highest dose)): 10 min
- Effect (C57Bl/6J mice; i.p., 90 μmol/kg): Severe tremors and seizures that start
- increase in CAP amplitude [2]: around 5%
- Kp ([3]; brain and plasma, read-out: Cbrain/Cplasma (maximum in the brain over maximum in plasma)): 0.1 ± 0.05
- half-life ([3]; brain, read-out: half-life in brain (converted)): 114 min
- half-life ([3]; plasma, read-out: half-life in plasma (converted)): 19.8 min
- in vitro affinity (K^+ channels; in vitro): ~250 µM
- concentration active in vivo (K^+ channels; in vivo): ~0.5 µM
- brain localization by autoradiography [4]: localizes to demyelinated areas but not myelinated areas
- Pe: permeability coefficient across artificial membrane [5]: 2.36 ± 0.03 nm/s

Compound: Nc1ccncc1CCF [3-EtF-4-AP, 3-fluoroethyl-4-aminopyridine]
- fold less potent than 4-AP (Shaker K^+ channel): at least a hundred fold-less potent
- IC50 (Shaker K^+ channel): > 10 mM

Compound: Nc1ccncc1CO [3-MeOH-4-AP, 3-methanol-4-aminopyridine, reference compound]
- IC50 (Shaker K^+ channel): 4.38 mM
- EC50 [1]: 386 µM
- effects in mice (C57Bl/6J mice): did not cause any effects
- Effect (C57Bl/6J mice; i.p., 960 μmol/kg): No effect

Compound: Nc1ccnc(F)c1 [2-F-4-AP, 2-fluoro-4-aminopyridine]
- fold less potent than 4-AP (Shaker K^+ channel): at least a hundred fold-less potent
- IC50 (Shaker K^+ channel): > 10 mM
- effect on CAP ([1]; hypomyelinated optic nerve): no effect
- effects in mice (C57Bl/6J mice): did not cause any effects
- Effect (C57Bl/6J mice; i.p., 1920 μmol/kg): No effect
